The results in this text go back to patent US20070196359A1, “Halosuccinimide biocide” (Minntech Corporation, priority 2006, published 2007).

For data set [1], the system named is B. subtilis bacterial spores. Briefly: Efficacy against bacterial endospores (FIG. 1). The data set is classed as cell-based. As to the method: The NCS biocide solution included about 1% NCS and was buffered at a pH of about 4. The NBS biocide solution included about 1% NBS and was buffered at pH about 3. […] In the case of NCS, a total kill corresponding to a 6 log reduction occurred over a period of approximately 30 minutes. In the case of NBS, a total kill corresponding to a 6 log reduction occurred over a period of approximately 60 minutes.

Data set [2] is described as follows: Stability of the biocide solution over time, active ingredient by iodometric titration (FIG. 3). The data set is classed as physicochemical. From the text:
The NBS biocide solution included about 1.0% NBS, 0.19% surfactant L-44 and was at a pH of about 3. The NCS biocide solution included about 1.0% NCS, 0.19% surfactant and was at a pH of about 3.

The next data set deals with M. terrae mycobacteria. The data set can be described thus: Efficacy against mycobacteria (FIG. 2). Conditions: for time to total kill of mycobacteria: pH 7.4. It is filed as cell-based. As to the method: The NCS biocide solution included about 1% NCS, was buffered at a pH of about 4 and was tested at 20° C. The NBS biocide solution included about 1% NBS, was buffered at a pH of about 3 and was tested at 20° C. Each solution produced a total kill corresponding to a 6 log reduction of the mycobacteria.

[3] abbreviates: about 1% NBS, buffered at pH about 3, 20° C.
The mark [4] stands for this setting: about 1% NCS, buffered at pH about 4, 20° C.

For `O=C1CCC(=O)N1Br` [NBS, N-bromosuccinimide], in data set [1] (setting [3]), the “period to total kill (6 log reduction)” value is “approximately 60 minutes” and the “total kill, log reduction in the bacteria” value was found to be 6 log. Also, in data set [2] (about 1.0% NBS, 0.19% surfactant L-44, pH about 3, increasing amounts of succinimide added, best at 9.0%), the stability over time result is recorded as “improved stability over time”. Also, in the data set on M. terrae mycobacteria (setting [3]), the “time to total kill” value is recorded as “about 30 seconds” and the “total kill, log reduction of the mycobacteria” value was found to be 6 log. For the same compound, the “time to total kill of mycobacteria” value with M. terrae mycobacteria is recorded as “about 175 seconds”.

Take `O=C1CCC(=O)N1Cl` [NCS, N-chlorosuccinimide]: in data set [1] (setting [4]), the “period to total kill (6 log reduction)” value was “approximately 30 minutes” and the “total kill, log reduction in the bacteria” value was determined as 6 log. For the same compound, in data set [2] (about 1.0% NCS, 0.19% surfactant, pH about 3, 4.8% succinimide added), the “stability over time compared to NCS alone” value is “improved stability”. In the data set with M. terrae mycobacteria (setting [4]), the “time to total kill” value is “about 30 seconds” and the “total kill, log reduction of the mycobacteria” value worked out at 6 log. For the same compound, the “time to total kill of mycobacteria” value with M. terrae mycobacteria was “about 90 seconds”.
